Assay [1] relates to primary human fibroblasts derived from IPF patients (LL29 cells). The assay can be described thus: Inhibition of TGF-β1-induced fibrosis (αSMA staining) in primary human fibroblasts from IPF patients. Format: cell-based. As to conditions: Fibroblast, 96 h, TGF-β1 20 ng/mL, 4 days, 11-point dose-response 10 μM to 1.87 nM. The text has this:
The above synthesized compounds were screened using primary human fibroblasts (derived from IPF patients) treated with TGF-β1 to determine their ability to inhibit the fibrotic process.
Primary human fibroblasts derived from IPF patients (LL29 cells) [^1Xiaoqiu Liu, et. al., “Fibrotic Lung Fibroblasts Show Blunted Inhibition by cAMP Due to Deficient cAMP Response Element-Binding Protein Phosphorylation”, Journal of Pharmacology and Experimental Therapeutics (2005), 315(2), 678-687; ^2Watts, K. L., et. al., “RhoA signaling modulates cyclin D1 expression in human lung fibroblasts; implications for idiopathic pulmonary fibrosis”, Respiratory Research (2006), 7(1), 88] were obtained from American Type Culture Collection (ATCC) and expanded in F12 medium supplemented with 15% Fetal Bovine Serum and Penicillin/Streptomycin.
Each compound was dissolved in DMSO as a 10 mM stock and used to prepare compound source plates. Serial dilution (1:2, 11-point dose-response curves from 10 μM to 1.87 nM) and compound transfer was performed using the ECHO 550 (Labcyte, Sunnyvale, Calif.) into 384-well clear bottom assay plates (Greiner Bio-One) with appropriate DMSO backfill for a final DMSO concentration of 0.1%. LL29 cells were plated at 1,500 cells/well in 80 μl/well F12 medium supplemented with 1% Fetal Bovine Serum. One hour after addition of the cells, TGF-β1 (Peprotech; 20 ng/mL) was added to the plates to induce fibrosis (ref. 1 and 2 above). Wells treated with TGF-β1 and containing DMSO were used as controls. Cells were incubated at 37° C. and 5% CO2 for 4 days. Following incubation for 4 days, SYTOX green nucleic acid stain (Life Technologies [Thermo Fisher Scientific]) was added to the wells at a final concentration of 1 uM and incubated at room temperature for 30 min. Cells were then fixed using 4% formaldehyde (Electron Microscopy Sciences), washed 3 times with PBS followed by blocking and permeabilization using 3% Bovine Serum Albumin (BSA; Sigma) and 0.3% Triton X-100 (Sigma) in PBS. Cells were then stained with antibody specific to α-smooth muscle actin (αSMA; Abcam) (ref 1 and 2 above) in 3% Bovine Serum Albumin (BSA; Sigma) and 0.3% Triton X-100 (Sigma) in PBS, and incubated overnight at 4° C. Cells were then washed 3 times with PBS, followed by incubation with Alexa Flor-647 conjugated secondary antibody (Life Technologies [Thermo Fisher Scientific]) and DAPI at room temperature for 1 hour. Cells were then washed 3 times with PBS and plates were sealed for imaging. αSMA staining was imaged by excitation at 630 nm and emission at 665 nm and quantified using the Compartmental Analysis program on the CellInsight CX5 (Thermo Scientific). Dead or apoptotic cells were excluded from analysis based on positive SYTOX green staining. % of total cells positive for αSMA were counted in each well and normalized to the average of 11 wells treated with TGF-β1 on the same plate using Dotmatics' Studies Software. The normalized averages (fold change over untreated) of 3 replicate wells for each compound concentration were used to create dose-responses curves and EC50 values were calculated using non-linear regression curve fit in the Dotmatics' Studies Software. The EC50 values are reported.

Assay [2] deals with Wnt activity (Sp5-Luc reporter, SW480 colon carcinoma cells). The assay can be described thus: Sp5-Luc Wnt reporter gene assay in SW480 colon carcinoma cells. Format: cell-based. Particulars: Homo sapiens; SW480 cells stably expressing Sp5-Luc reporter; 42 h incubation; BrightGlo luminescence normalized to DMSO. The text has this: The screening assay for Wnt activity is described as follows. Reporter cell lines can be generated by stably transducing cancer cell lines (e.g., colon cancer) or primary cells (e.g., IEC-6 intestinal cells) with a lentiviral construct that includes a Wnt-responsive promoter driving expression of the firefly luciferase gene.
SW480 colon carcinoma cells were transduced with a lentiviral vector expressing luciferase with a human Sp5 promoter consisting of a sequence of eight TCF/LEF binding sites. SW480 cells stably expressing the Sp5-Luc reporter gene and a hygromycin resistance gene were selected by treatment with 150 μg/ml of hygromycin for 7 days. These stably transduced SW480 cells were expanded in cell culture and used for all further screening activities. For Sp5-Luc reporter gene assays, the cells were plated at 10,000 cells/well in 96-well plates with growth medium containing 10% fetal calf serum and incubated overnight at 37° C. and 5% CO2. Each compound was dissolved in DMSO as a 10 mM stock in standard j-vials and used to prepare compound source plates in dose-response format with 3-fold serial dilutions and a 10 mM top concentration. Compound transfer from serially diluted source plates to assay plates containing the cells was accomplished using a pintool (Multimek 96, Beckman equipped with V&P Scientific FP1S50H pins) based liquid handling protocol. This protocol used a slotted pin to transfer 50 nl of compound from a source plate well to an assay plate well containing 50 μl of cells in growth medium. […] Control wells received 50 nl of DMSO treatment for normalization and calculating IC50 values. The treated cells were incubated at 37° C. and 5% CO2 for an additional forty-two hours. Following incubation, the growth medium was removed and 50 μl of BrightGlo luminescence reagent (Promega) was added to each well of the 96-well assay plates. The plates were placed on an orbital shaker for 5 min and then luminescence was quantified on the Victor3 (Perkin Elmer) plate reader. Readings were normalized to DMSO only treated cells, and normalized activities were utilized for IC50 calculations using the dose-response log (inhibitor) vs. response-variable slope (four parameters) nonlinear regression feature available in GraphPad Prism 5.0 or 6.0.
(Reporter assays use an easily measured gene product as a stand-in for the process of interest.)

Broadly, the EC50 is the concentration needed to bring the measured effect to its halfway point. For orientation: IC50 means the midpoint of a concentration-inhibition curve. On to `CN(C)c1cncc(-c2cnc3[nH]nc(-c4nc5c(-c6cccc(F)c6)nccc5[nH]4)c3c2)c1` [Compound 7, 5-(3-(4-(3-Fluorophenyl)-1H-imidazo[4,5-c]pyridin-2-yl)-1H-pyrazolo[3,4-b]pyridin-5-yl)-N,N-dimethylpyridin-3-amine], for which it took 365 nM to reach a half-maximal effect in assay [1] (EC50). Moreover, the IC50 in assay [2] was 35.3 nM.
The molecule `CN(C)Cc1cncc(-c2cnc3[nH]nc(-c4nc5c(-c6cccc(F)c6)nccc5[nH]4)c3c2)c1` [Compound 13, 1-(5-(3-(4-(3-Fluorophenyl)-1H-imidazo[4,5-c]pyridin-2-yl)-1H-pyrazolo[3,4-b]pyridin-5-yl)pyridin-3-yl)-N,N-dimethylmethanamine] yielded an EC50 in assay [1] of 30 nM. The IC50 in assay [2] amounted to 339 nM.
`O=C(Nc1cncc(-c2cnc3[nH]nc(-c4nc5c(-c6cccc(F)c6)nccc5[nH]4)c3c2)c1)C1CC1` [Compound 19, N-(5-(3-(4-(3-Fluorophenyl)-1H-imidazo[4,5-c]pyridin-2-yl)-1H-pyrazolo[3,4-b]pyridin-5-yl)pyridin-3-yl)cyclopropanecarboxamide] showed an EC50 in assay [1] of 27 nM. In addition, half-maximal inhibition in assay [2] (IC50) was put at 5 nM.
For `CC(C)CC(=O)Nc1cncc(-c2cnc3[nH]nc(-c4nc5c(-c6ccc(F)cc6)nccc5[nH]4)c3c2)c1` [Compound 28, N-(5-(3-(4-(4-Fluorophenyl)-1H-imidazo[4,5-c]pyridin-2-yl)-1H-pyrazolo[3,4-b]pyridin-5-yl)pyridin-3-yl)-3-methylbutanamide] the same measures were 881 nM and 37.7 nM.
The molecule `CC(C)(C)C(=O)Nc1cncc(-c2cnc3[nH]nc(-c4nc5c(-c6ccc(F)cc6)nccc5[nH]4)c3c2)c1` [Compound 34, N-(5-(3-(4-(4-Fluorophenyl)-1H-imidazo[4,5-c]pyridin-2-yl)-1H-pyrazolo[3,4-b]pyridin-5-yl)pyridin-3-yl)pivalamide] yielded an EC50 in assay [1] of 3060 nM. Further, the IC50 in assay [2] came to 152 nM.
On to `Fc1ccc(-c2nccc3[nH]c(-c4n[nH]c5ncc(-c6cncc(CN7CCCC7)c6)cc45)nc23)cc1` [Compound 40, 3-(4-(4-Fluorophenyl)-1H-imidazo[4,5-c]pyridin-2-yl)-5-(5-(pyrrolidin-1-ylmethyl)pyridin-3-yl)-1H-pyrazolo[3,4-b]pyridine], for which, in assay [1], the EC50 is not below 9990 nM. Also, the IC50 in assay [2] was more than 10000 nM.
For `CC(C)C(=O)Nc1cncc(-c2cnc3[nH]nc(-c4nc5c(-c6ccccc6F)nccc5[nH]4)c3c2)c1` [Compound 61, N-(5-(3-(4-(2-Fluorophenyl)-1H-imidazo[4,5-c]pyridin-2-yl)-1H-pyrazolo[3,4-b]pyridin-5-yl)pyridin-3-yl)isobutyramide] the same measures were more than 10000 nM and 28 nM.
For `CC(C)(C)CC(=O)Nc1cncc(-c2cnc3[nH]nc(-c4nc5c(-c6ccccc6F)nccc5[nH]4)c3c2)c1` [Compound 68, N-(5-(3-(4-(2-Fluorophenyl)-1H-imidazo[4,5-c]pyridin-2-yl)-1H-pyrazolo[3,4-b]pyridin-5-yl)pyridin-3-yl)-3,3-dimethylbutanamide] the same measures were 930 nM and 95.7 nM.
`O=C(Nc1cncc(-c2cnc3[nH]nc(-c4nc5c(-c6ccccc6F)nccc5[nH]4)c3c2)c1)C1CCCC1` [Compound 73, N-(5-(3-(4-(2-Fluorophenyl)-1H-imidazo[4,5-c]pyridin-2-yl)-1H-pyrazolo[3,4-b]pyridin-5-yl)pyridin-3-yl)cyclopentanecarboxamide] yielded an EC50 in assay [1] of 611 nM. The molecule further showed an IC50 in assay [2] of 60.2 nM.
For `CC(C)C(=O)Nc1cncc(-c2cnc3[nH]nc(-c4nc5c(-c6cccnc6)nccc5[nH]4)c3c2)c1` [Compound 87, N-(5-(3-(4-(Pyridin-3-yl)-1H-imidazo[4,5-c]pyridin-2-yl)-1H-pyrazolo[3,4-b]pyridin-5-yl)pyridin-3-yl)isobutyramide] the same measures were 9 nM and more than 10000 nM.
As to `CC(C)Nc1cncc(-c2cnc3[nH]nc(-c4nc5c(-c6cccnc6)nccc5[nH]4)c3c2)c1` [Compound 90, N-Isopropyl-5-(3-(4-(pyridin-3-yl)-1H-imidazo[4,5-c]pyridin-2-yl)-1H-pyrazolo[3,4-b]pyridin-5-yl)pyridin-3-amine], the EC50 in assay [1] is not below 9990 nM. Moreover, in assay [2], the IC50 is 79.7 nM.
`c1ccc(CNCc2cncc(-c3cnc4[nH]nc(-c5nc6c(-c7cccnc7)nccc6[nH]5)c4c3)c2)cc1` [Compound 101, N-Benzyl-1-(5-(3-(4-(pyridin-3-yl)-1H-imidazo[4,5-c]pyridin-2-yl)-1H-pyrazolo[3,4-b]pyridin-5-yl)pyridin-3-yl)methanamine]: the EC50 in assay [1] was not below 9990 nM. Besides, the IC50 in assay [2] was more than 10000 nM.
For `Cc1ccncc1-c1cnc2[nH]nc(-c3nc4c(-c5ccncc5)nccc4[nH]3)c2c1` [Compound 109, 5-(4-Methylpyridin-3-yl)-3-(4-(pyridin-4-yl)-1H-imidazo[4,5-c]pyridin-2-yl)-1H-pyrazolo[3,4-b]pyridine] the same measures were not below 9990 nM and more than 10000 nM.
For `O=C(Cc1ccccc1)Nc1cncc(-c2cnc3[nH]nc(-c4nc5c(-c6ccncc6)nccc5[nH]4)c3c2)c1` [Compound 114, 2-Phenyl-N-(5-(3-(4-(pyridin-4-yl)-1H-imidazo[4,5-c]pyridin-2-yl)-1H-pyrazolo[3,4-b]pyridin-5-yl)pyridin-3-yl)acetamide] the same measures were not below 9990 nM and more than 10000 nM.
The molecule `CCCC(=O)Nc1cncc(-c2cnc3[nH]nc(-c4nc5c(-c6ccncc6)nccc5[nH]4)c3c2)c1` [Compound 121, N-(5-(3-(4-(Pyridin-4-yl)-1H-imidazo[4,5-c]pyridin-2-yl)-1H-pyrazolo[3,4-b]pyridin-5-yl)pyridin-3-yl)butyramide] yielded an EC50 in assay [1] not below 9990 nM. In addition, the IC50 in assay [2] is more than 10000 nM.
For `CCNCc1cncc(-c2cnc3[nH]nc(-c4nc5c(-c6ccccn6)nccc5[nH]4)c3c2)c1` [Compound 136, N-((5-(3-(4-(Pyridin-2-yl)-1H-imidazo[4,5-c]pyridin-2-yl)-1H-pyrazolo[3,4-b]pyridin-5-yl)pyridin-3-yl)methyl)ethanamine] the same measures were 9 nM and more than 10000 nM.
For `O=C(Nc1cncc(-c2cnc3[nH]nc(-c4nc5c(-c6ccccn6)nccc5[nH]4)c3c2)c1)c1ccccc1` [Compound 141, N-(5-(3-(4-(Pyridin-2-yl)-1H-imidazo[4,5-c]pyridin-2-yl)-1H-pyrazolo[3,4-b]pyridin-5-yl)pyridin-3-yl)benzamide] the same measures were not below 9990 nM and more than 10000 nM.
